Experimental data reported in ChEMBL document CHEMBL1129600, “Identification of retinoic acid receptor beta subtype specific agonists” (J Med Chem, 1996).
pEC50, pKd: −log10 of the molar value.

Assays:
[1] = target: T1, Retinoic acid receptor beta (Homo sapiens) (UniProt P10826); experiment: Relative efficacy for Retinoic acid receptor beta compared to maximal retinoic acid response
T1 sequence (whole entry): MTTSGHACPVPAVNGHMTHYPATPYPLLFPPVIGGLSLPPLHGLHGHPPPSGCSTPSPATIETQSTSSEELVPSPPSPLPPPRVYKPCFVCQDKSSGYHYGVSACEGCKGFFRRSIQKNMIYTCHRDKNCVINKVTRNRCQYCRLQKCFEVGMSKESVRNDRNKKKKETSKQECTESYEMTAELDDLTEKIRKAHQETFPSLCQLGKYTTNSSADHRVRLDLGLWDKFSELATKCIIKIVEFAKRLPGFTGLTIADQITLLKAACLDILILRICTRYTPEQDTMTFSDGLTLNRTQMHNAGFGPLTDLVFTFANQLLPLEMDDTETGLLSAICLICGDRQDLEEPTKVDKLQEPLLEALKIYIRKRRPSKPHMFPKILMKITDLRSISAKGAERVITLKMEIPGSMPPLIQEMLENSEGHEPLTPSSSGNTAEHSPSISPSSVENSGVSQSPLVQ

[2] = target: T2, Retinoic acid receptor beta (Homo sapiens, UniProt P10826); experiment: Transcriptional activation in CV-1 cells expressing Retinoic acid receptor RAR beta; format: cell-based
T2 sequence (P10826 whole entry): T1 sequence (whole entry)

[3] = target: T2, Retinoic acid receptor beta; experiment: Inhibition of [3H]ATRA binding to baculovirus expressed Retinoic acid receptor RAR beta
[4] = target: T3, Retinoic acid receptor gamma (Homo sapiens, UniProt P13631); experiment: Inhibition of [3H]ATRA binding to baculovirus expressed Retinoic acid receptor RAR gamma
T3 sequence (P13631 whole entry): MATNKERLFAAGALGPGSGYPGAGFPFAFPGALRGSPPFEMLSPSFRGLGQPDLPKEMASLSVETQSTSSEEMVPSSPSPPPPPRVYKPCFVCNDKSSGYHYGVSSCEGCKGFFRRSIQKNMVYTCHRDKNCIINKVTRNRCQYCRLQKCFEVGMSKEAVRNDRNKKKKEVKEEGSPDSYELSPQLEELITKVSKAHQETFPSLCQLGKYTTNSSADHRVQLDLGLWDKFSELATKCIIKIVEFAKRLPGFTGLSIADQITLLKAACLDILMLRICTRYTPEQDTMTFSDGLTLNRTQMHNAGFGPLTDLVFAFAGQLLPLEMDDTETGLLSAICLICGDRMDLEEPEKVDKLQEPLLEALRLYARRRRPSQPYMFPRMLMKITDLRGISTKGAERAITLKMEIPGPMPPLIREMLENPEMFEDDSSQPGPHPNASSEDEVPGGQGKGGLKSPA

[5] = target: T4, Retinoic acid receptor alpha (Homo sapiens, UniProt P10276); experiment: Inhibition of [3H]ATRA binding to baculovirus expressed Retinoic acid receptor RAR alpha
T4 sequence (P10276 whole entry): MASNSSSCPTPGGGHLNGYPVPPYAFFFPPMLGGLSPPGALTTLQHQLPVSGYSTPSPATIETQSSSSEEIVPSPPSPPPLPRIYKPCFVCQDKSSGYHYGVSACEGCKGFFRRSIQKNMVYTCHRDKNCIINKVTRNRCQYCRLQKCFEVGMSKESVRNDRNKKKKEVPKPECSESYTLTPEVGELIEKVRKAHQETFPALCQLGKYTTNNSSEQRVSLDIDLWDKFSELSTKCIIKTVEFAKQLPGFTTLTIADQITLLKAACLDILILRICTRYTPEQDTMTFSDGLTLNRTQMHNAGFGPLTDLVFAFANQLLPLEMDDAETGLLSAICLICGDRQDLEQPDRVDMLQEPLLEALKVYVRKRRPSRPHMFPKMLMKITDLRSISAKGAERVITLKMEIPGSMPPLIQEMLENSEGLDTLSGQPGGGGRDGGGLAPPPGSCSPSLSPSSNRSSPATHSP

Eff [1] [%] | pEC50 [2] | pKd [3] | pKd [4] | pKd [5] | SMILES
32 | 7.60 | 7.70 | 6.98 | 6.89 | CC1(C)CC=C(c2cccs2)c2cc(C#Cc3ccc(C(=O)O)cc3)ccc21
61 | 6.94 | 6.00 | < 5.00 | 7.03 | CC1(C)CC=C(c2cccs2)c2cc(C(=O)Nc3ccc(C(=O)O)cc3)ccc21
47 | 7.59 | 6.72 | 5.83 | 6.52 | CC1(C)CC=C(c2cccs2)c2cc(C(=O)Oc3ccc(C(=O)O)cc3)ccc21
